Where two headings read alike, the source gives them in different places.
Key:
[1] = system: Artemia salina (EG Artemia Cysts, Great Salt Lake strain); test: Experiment 1 poison plate assay, Artemia salina larvae; type: in vivo; details: Artemia salina larvae (24 hours old), artificial seawater; after 24 hours of exposure; total active ingredient; ratio (I) to (II) in label
Description: (§1) Synergism between component (I) and one of the components (II) was determined by a commonly used and accepted method described by Kull F. C. et al. in Applied Microbiology, 9, 538-541 (1961) using the Synergy Index, which is calculated as follows for two compounds A and B:
(§2) [formula] wherein: • QA is the concentration of compound A in ppm, acting alone, which produced an end point (e.g. MIC), • Qa is the concentration of compound A in ppm, in the mixture, which produced an end point (e.g. MIC), • QB is the concentration of compound B in ppm, acting alone, which produced an end point (e.g. MIC), • Qb is the concentration of compound B in ppm, in the mixture, which produced an end point (e.g. MIC).
(§3) MIC is the minimum inhibitory concentration, i.e. the lowest concentration of each test compound or mixture of test compounds sufficient to inhibit visible growth.
(§4) When the Synergy Index is greater than 1.0, antagonism is indicated. When the SI is equal to 1.0, additivity is indicated.

[2] = system: Chlamydomonas sphagnophila CCAP 11/36E; test: Experiment 1 poison plate assay, algae species (3); type: cell-based; details: 24-well plates, BG 11 medium, after 3 weeks of exposure, total active ingredient, ratio (I) to (II) in label
Description: as §1, §2, §3, §4

[3] = system: Anabaena cylindrica CCAP 1403/2A; test: Experiment 1 poison plate assay, algae species (2); type: cell-based; details: for MIC-values in ppm: 24-well plates, BG 11 medium, after 3 weeks of exposure, total active ingredient, ratio (I) to (II) in label
Description: as §1, §2, §3, §4

[4] = system: Chlorella vulgaris CCAP 211/12; test: Experiment 2 poison plate assay, algae species (1); type: cell-based; details: 24-well plates, BG 11 medium, after 3 weeks of exposure, total active ingredient, ratio (I) to (II) in label
Description: as §1, §2, §3, §4
(§5) Synergism between component (I) and one of the components (II) was determined using the Synergy Index as outlined above in Experiment 1.

[5] = buffer
Tribonema sp. CCAP 880/2 = test: Experiment 2 poison plate assay, algae species (4); type: cell-based
Description: as §1, §2, §3, §4, §5

[6] = system: Anabaena cylindrica CCAP 1403/2A; test: Experiment 2 poison plate assay, algae species (2); type: cell-based; details: 24-well plates, BG 11 medium, after 3 weeks of exposure, total active ingredient, ratio (I) to (II) in label
Description: as §1, §2, §3, §4, §5

[Na+].[O-]Cl [(II-b), sodium hypochlorite]
MIC-values in ppm [1]: 200.00 ppm
MIC-values in ppm [2]: 107.0 ppm
MIC-values in ppm [3]: 33.8 ppm

O=S(=O)([O-])OOS(=O)(=O)[O-].[K+].[K+] [(II-d), potassium peroxydisulfate]
MIC-values in ppm [4]: 60.0 ppm

[O][Cl+][O-] [(II-c), chlorine dioxide]
MIC-values in ppm [4]: 9.49 ppm

OO [(II-a), hydrogen peroxide]
MIC-values in ppm [2]: 45.0 ppm
MIC-values in ppm [3]: 25.3 ppm

N#Cc1c(-c2ccc(Cl)cc2)[nH]c(C(F)(F)F)c1Br [(I), 4-bromo-2-(4-chlorophenyl)-5-(trifluoromethyl)-1H-pyrrole-3-carbonitrile]
MIC-values in ppm [1]: 0.13 ppm
half-life [5]: a couple of days
half-life ([5]; pH 8.3): a few hours
MIC-values in ppm [2]: 107.0 ppm
MIC (Tribonema sp. CCAP 880/2; 504 h, read-out: MIC-values in ppm): 107 µg/mL
MIC-values in ppm [4]: 107.0 ppm
MIC-values in ppm ([6]; listed as (I) + (II-e) 100 + 0): 19 ppm
MIC-values in ppm ([6]; listed as (I) + (II-f) 100 + 0): 25.3 ppm
MIC-values in ppm ([6]; listed as (I) + (II-g) 100 + 0): 6.00 ppm
MIC ([3]; CCAP1403/2A, 504 h, read-out: MIC-values in ppm): 107 µg/mL

[K+].[K+].[O-][O-] [(II-f), potassium peroxide]
MIC-values in ppm [6]: 10.7 ppm

potassium superoxide [(II-e)]
MIC-values in ppm [6]: 45.0 ppm

potassium nitrosodisulfonate [(II-g)]
MIC-values in ppm [6]: 80.0 ppm

potassium (VI) ferrate [(II-h)]
MIC-values in ppm (Tribonema sp. CCAP 880/2; Tribonema sp., 24-well plates, BG 11 medium, after 3 weeks of exposure, total active ingredient, ratio (I) to (II) in label): 80.0 ppm

— US8399506B2, “Combinations of 4 bromo-2-(4-chlorophenyl)-5-(trifluoromethyl)-1H-pyrrole-3-carbonitrile and oxidizing agents” (Janssen Pharmaceutica, NV, priority 2006, dated 2013)
